Laboratory results: patent US11236129B2, “IL-17A binding peptides and medical uses thereof” (Dompe' Farmaceutici S.P.A., priority 2018, dated 2022)
Read-outs that look alike come from different tables or passages of the source. Residues, ends and D or L forms follow the SMILES beside them.

How the values were obtained:
[1] = assay type: physicochemical; conditions: pH 7.8
Experimental: Each lyophilized peptide was weighed in an amber vial. A calculated volume of phosphate buffered solution at pH 7.8 was added in order to directly obtain 10 mM Stock Solutions. The recovered suspensions were stirred for 30 minutes by orbital shaker incubator at 37° C. Subsequent dilutions were performed to obtain the more diluted stock solutions for the less soluble compounds.
In order to evaluate the stability and the solubility, all the stock solutions were stored at 25° C. The title was evaluated by UHPLC-MS analysis in comparison with the standard solutions, at 3 time points: T0, 3 days, 1 week.
The chromatographic profile was evaluated for the quantitative assay while the MS spectra were detected as support in the stability studies.
Each peptide was weighed and directly diluted at 100 μM with the phosphate buffer at pH 7.8. The solutions were stirred for 5 minutes by vortex and heated at 37° C. for 20 minutes. The obtained standard solution was stored at 25° C. in the dark under controlled temperature.
A portion of the stock solutions was collected in an amber vial and diluted to 100 μM by phosphate buffer at pH 7.8 (dilution factor, 1:100).
Reversed-phase UHPLC was performed operating at a flow rate of 0.3 ml/min with a Luna Omega Polar C18 column ([…] 1.6 μm, 2.1×100 mm). Solvent A was 0.5% Formic Acid in water and solvent B was 0.5% Formic Acid in acetonitrile. First, samples were loaded onto the column and washed isocratically at 10% B for 3 min. Then, a gradient of 10-95% B was run over 22 min, held at 95% for 2 min, and then decreased to 10% over 1 min and held, for the pressure stabilization, for 5 min. UV Absorption was monitored by DAD (220-400 nm). ESI-MS ion trap was used for the monitoring of TIC.

[2] = Isoelectric point, log D and log P (SiriusT3); assay type: physicochemical; conditions: for IP (isoelectric point): 25±1° C., 0.15 M KCl; for Log D (7.4): pH 7.4
Experimental: The main physicochemical properties (Isoelectric point (IP), log D (7.4) and log P) of the peptides of Table 8 below were determined by using the SiriusT3 apparatus (Sirius Analytical Instruments Ltd., East Sussex, UK) equipped with an Ag/AgCl double junction reference pH electrode, a Sirius D-PAS spectrometer and a turbidity sensing device. […] An overhead stirrer was used and a temperature probe (Peltier controller) monitored the temperature during the course of the titration. The titration experiments were conducted in 0.15 M KCl Ionic Strength Adjusted solution (ISA water) under a nitrogen atmosphere at a temperature of 25±1° C. All tests were performed using standardized 0.5 M KOH and 0.5 M HCl as titration reagents, for the partition coefficient tests a saturated Octanol in ISA water (5% of ISA water) was used as partition solvent. The pKas were determined by potentiometric method by pH-metric titration. The powder (around 0.5 mg) was dissolved in 1.5 ml of ISA water and the titration was performed in triplicate in the pH range 2.0−12.0.

[3] = target: IL-17RA/IL17RC dimerization induced by IL-17A (Homo sapiens, UniProt Q16552); experiment: IL-17RA/IL17RC dimerization assay in response to IL-17A (PathHunter Cytokine Receptor Assay); assay type: cell-based; conditions: IL-17A at EC80; read-out: IC50 in IL-17RA/IL7RC dimerization assay
Sequence of IL-17RA/IL17RC dimerization induced by IL-17A (Q16552 24-155): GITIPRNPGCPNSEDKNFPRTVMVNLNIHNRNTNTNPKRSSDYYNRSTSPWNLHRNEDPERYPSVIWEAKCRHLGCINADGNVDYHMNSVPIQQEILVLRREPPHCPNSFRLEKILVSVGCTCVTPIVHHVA
Summary of the method: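 Receptor dimerization was read as chemiluminescence from complemented β-galactosidase after IL-17A at EC80 concentration for 6–16 h at 37 °C. Peptides were added 60 min before agonist, at 37 °C or room temperature, with 1% vehicle. Percent inhibition used the EC80-stimulated and vehicle wells as references.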

[4] = octanol/ISA water, read-out: logP
[5] = pH 7.4, pH 7.4, octanol/ISA water, read-out: Log D (7.4)

SMILES | solubility [1] [mM] | IP (isoelectric point) [2] | logP [2, 4] | logD [2, 5] | IC50 [3] [µM] | further results
CC[C@H](C)[C@H](NC(C)=O)C(=O)N[C@@H](CCSC)C(=O)N[C@H](C(=O)N[C@H](C(=O)N[C@H](C(=O)N1CCC[C@H]1C(=O)N[C@@H](C)C(=O)N[C@@H](CC(=O)O)C(=O)N[C@@H](CC(C)C)C(=O)N[C@@H](Cc1c[nH]c2ccccc12)C(=O)N[C@@H](CC(=O)O)C(=O)N[C@@H](Cc1c[nH]c2ccccc12)C(=O)N[C@H](C(=O)N[C@@H](CC(N)=O)C(=O)N[C@@H](CCCCN)C(N)=O)[C@@H](C)CC)[C@@H](C)CC)[C@@H](C)O)C(C)C [SEQ ID NO: 3] (Ac-IMVTIPADLWDWINK-NH2) | ≥ 0.01 | 3.90 | 1.33 | -1.87 | < 0.4 | –
CC[C@H](C)[C@H](NC(=O)[C@H](Cc1c[nH]c2ccccc12)NC(=O)[C@H](CC(=O)O)NC(=O)[C@H](Cc1c[nH]c2ccccc12)NC(=O)[C@H](CC(C)C)NC(=O)[C@H](CC(=O)O)NC(=O)[C@H](C)NC(=O)[C@@H]1CCCN1C(=O)[C@@H](NC(=O)[C@@H](NC(=O)[C@@H](NC(=O)[C@H](CCSC)NC(=O)[C@@H](NC(C)=O)C(C)C)C(C)C)[C@@H](C)O)[C@@H](C)CC)C(=O)N[C@@H](CC(N)=O)C(=O)N[C@@H](CCCCN)C(N)=O [SEQ ID NO: 4] (Ac-VMVTIPADLWDWINK-NH2) | ≥ 0.02 | 3.90 | 1.88 | -1.32 | < 0.1 | –
CC[C@H](C)[C@H](NC(C)=O)C(=O)N[C@@H](Cc1c[nH]cn1)C(=O)N[C@H](C(=O)N[C@H](C(=O)N[C@H](C(=O)N1CCC[C@H]1C(=O)N[C@@H](C)C(=O)N[C@@H](CCC(=O)O)C(=O)N[C@@H](CC(C)C)C(=O)N[C@@H](Cc1c[nH]c2ccccc12)C(=O)N[C@@H](CC(=O)O)C(=O)N[C@@H](Cc1c[nH]c2ccccc12)C(=O)N[C@H](C(=O)N[C@@H](CC(N)=O)C(=O)N[C@@H](CCCCN)C(N)=O)[C@@H](C)CC)[C@@H](C)CC)[C@@H](C)O)C(C)C [SEQ ID NO: 5] (Ac-IHVTIPAELWDWINK-NH2) | ≥ 1 | 5.19 | -0.51 | -1.26 | < 0.1 | –
CC[C@H](C)[C@H](NC(C)=O)C(=O)N[C@@H](Cc1c[nH]cn1)C(=O)N[C@H](C(=O)N[C@H](C(=O)N[C@H](C(=O)N1CCC[C@H]1C(=O)N[C@@H](C)C(=O)N[C@@H](CC(=O)O)C(=O)N[C@@H](CC(C)C)C(=O)N[C@@H](Cc1ccc(O)cc1)C(=O)N[C@@H](CC(=O)O)C(=O)N[C@@H](Cc1c[nH]c2ccccc12)C(=O)N[C@H](C(=O)N[C@@H](CC(N)=O)C(=O)N[C@@H](CCCCN)C(N)=O)[C@@H](C)CC)[C@@H](C)CC)[C@@H](C)O)C(C)C [SEQ ID NO: 6] (Ac-IHVTIPADLYDWINK-NH2) | > 10 | 5.14 | – | – | < 0.4 | logP ([2]; logP): -0.37; logD ([2]; pH 7.4, Log D (7.4)): -3.65
CC[C@H](C)[C@H](NC(C)=O)C(=O)N[C@@H](Cc1c[nH]cn1)C(=O)N[C@H](C(=O)N[C@H](C(=O)N[C@H](C(=O)N1CCC[C@H]1C(=O)N[C@@H](C)C(=O)N[C@@H](CC(=O)O)C(=O)N[C@@H](CC(C)C)C(=O)N[C@@H](Cc1ccc(O)cc1)C(=O)N[C@@H](CCC(=O)O)C(=O)N[C@@H](Cc1c[nH]c2ccccc12)C(=O)N[C@H](C(=O)N[C@@H](CC(N)=O)C(=O)N[C@@H](CCCCN)C(N)=O)[C@@H](C)CC)[C@@H](C)CC)[C@@H](C)O)C(C)C [SEQ ID NO: 7] (Ac-IHVTIPADLYEWINK-NH2) | > 10 | 5.19 | – | – | – | logP [2]: −0.86; Log D (7.4) [2]: −1.41
CC[C@H](C)[C@H](NC(C)=O)C(=O)N[C@@H](Cc1c[nH]cn1)C(=O)N[C@H](C(=O)N[C@H](C(=O)N[C@H](C(=O)N1CCC[C@H]1C(=O)N[C@@H](C)C(=O)N[C@@H](CC(=O)O)C(=O)N[C@@H](CC(C)C)C(=O)N[C@@H](Cc1ccc(O)cc1)C(=O)N[C@@H](CCC(=O)O)C(=O)N[C@@H](Cc1c[nH]c2ccccc12)C(=O)N[C@H](C(=O)N[C@@H](CC(N)=O)C(=O)N[C@@H](CCCCN)C(N)=O)[C@@H](C)CC)[C@@H](C)CC)[C@@H](C)O)C(C)C [SEQ ID NO: 13] (Ac-IHVTIPADLYEWINK-NH2) | >10 | 6.06 | – | – | – | logP [2]: −0.49; Log D (7.4) [2]: 1.15
CC[C@H](C)[C@H](NC(=O)[C@H](Cc1c[nH]c2ccccc12)NC(=O)[C@H](CCC(=O)O)NC(=O)[C@H](Cc1ccc(O)cc1)NC(=O)[C@H](CC(C)C)NC(=O)[C@H](CC(=O)O)NC(=O)[C@H](C)NC(=O)[C@@H]1CCCN1C(=O)[C@@H](NC(=O)[C@@H](NC(=O)[C@@H](NC(=O)[C@H](CCSC)NC(=O)[C@@H](NC(=O)CNC(=O)[C@H](C)NC(=O)CNC(=O)[C@@H]1CCCN1C(=O)[C@@H](NC(=O)CNC(=O)[C@H](C)NC(=O)CNC(=O)[C@@H]1CCCN1C(=O)[C@@H](NC(C)=O)C(C)C)C(C)C)C(C)C)C(C)C)[C@@H](C)O)[C@@H](C)CC)C(=O)N[C@@H](CCC(=O)O)C(=O)N[C@@H](CCC(=O)O)C(N)=O [SEQ ID NO: 38] | > 10 | 5.14 | -5.88 | -3.46 | – | –
CC[C@H](C)[C@H](NC(=O)[C@H](CCC(=O)O)NC(=O)[C@H](CC(C)C)NC(=O)[C@@H]1CCCN1C(=O)[C@@H](NC(=O)[C@H](CO)NC(=O)CNC(=O)[C@H](CCCNC(=N)N)NC(=O)[C@H](CC(C)C)NC(C)=O)C(C)C)C(=O)N[C@@H](Cc1ccccc1)C(=O)N[C@@H](CCC(=O)O)C(=O)N[C@@H](Cc1c[nH]c2ccccc12)C(=O)N[C@@H](CC(C)C)C(=O)N[C@@H](CCC(N)=O)C(=O)N[C@@H](Cc1c[nH]cn1)C(N)=O [SEQ ID NO: 253] (Ac-LRGSVPLEIFEWLQH-NH2) | – | – | – | – | < 10 | –
CC[C@H](C)[C@H](NC(=O)[C@H](CCC(=O)O)NC(=O)[C@H](CC(C)C)NC(=O)[C@@H]1CCCN1C(=O)[C@@H](NC(=O)[C@H](CO)NC(=O)[C@@H](NC(=O)[C@H](CCCCN)NC(=O)[C@@H](NC(C)=O)C(C)C)[C@@H](C)CC)C(C)C)C(=O)N[C@@H](Cc1ccccc1)C(=O)N[C@@H](CCC(=O)O)C(=O)N[C@@H](Cc1c[nH]c2ccccc12)C(=O)N[C@@H](CC(C)C)C(=O)N[C@@H](CCC(N)=O)C(=O)N[C@@H](Cc1c[nH]cn1)C(N)=O [SEQ ID NO: 254] (Ac-VKISVPLEIFEWLQH-NH2) | – | – | – | – | < 10 | –
CC(=O)N[C@H](C(=O)N[C@@H](CCC(=O)O)C(=O)N[C@@H](Cc1ccccc1)C(=O)N[C@@H](CC(N)=O)C(=O)N[C@@H](Cc1ccccc1)C(=O)N1CCC[C@H]1C(=O)N[C@@H](CCC(N)=O)C(=O)N[C@@H](CCC(N)=O)C(=O)N[C@H](C(=O)N[C@@H](Cc1ccc(O)cc1)C(=O)N[C@@H](CCC(=O)O)C(=O)N[C@@H](Cc1c[nH]c2ccccc12)C(=O)N[C@@H](Cc1ccccc1)C(=O)N[C@@H](CC(=O)O)C(=O)N[C@@H](CC(=O)O)C(N)=O)C(C)C)C(C)C [SEQ ID NO: 255] (Ac-VEFNFPQQVYEWFDD-NH2) | – | – | – | – | < 10 | –
CC(=O)N[C@H](C(=O)N[C@@H](CCC(=O)O)C(=O)N[C@@H](Cc1ccccc1)C(=O)N[C@@H](CC(N)=O)C(=O)N[C@@H](Cc1ccccc1)C(=O)N1CCC[C@H]1C(=O)N[C@@H](CCC(N)=O)C(=O)N[C@@H](CCC(N)=O)C(=O)N[C@H](C(=O)N[C@@H](Cc1ccc(O)cc1)C(=O)N[C@@H](CCC(=O)O)C(=O)N[C@@H](Cc1c[nH]c2ccccc12)C(=O)N[C@H](C(=O)N[C@@H](CCCNC(=N)N)C(=O)N[C@@H](CCCNC(=N)N)C(N)=O)C(C)C)C(C)C)C(C)C [SEQ ID NO: 256] (Ac-VEFNFPQQVYEWVRR-NH2) | – | – | – | – | < 10 | –
CC(=O)N[C@H](C(=O)N[C@H](C(=O)N[C@H](C(=O)N[C@@H](Cc1ccc(O)cc1)C(=O)N[C@H](C(=O)N[C@@H](Cc1ccccc1)C(=O)N[C@@H](CC(N)=O)C(=O)N[C@@H](CCC(=O)O)C(=O)N[C@@H](CCC(N)=O)C(=O)N[C@@H](Cc1c[nH]cn1)C(=O)N[C@@H](CCC(N)=O)C(=O)N[C@@H](CCC(=O)O)C(=O)N[C@@H](Cc1ccc(O)cc1)C(=O)N[C@H](C(=O)N[C@@H](CCCNC(=N)N)C(=O)N[C@@H](CCCCN)C(N)=O)C(C)C)C(C)C)C(C)C)C(C)C)[C@@H](C)O [SEQ ID NO: 257] (Ac-TVVYVFNEQHQEYVRK-NH2) | – | – | – | – | < 10 | –
